In data set [1] the test system is SJL female mice. The data set is described as follows: Experimental autoimmune encephalomyelitis (EAE). It is filed as in vivo, mouse. The text has this: EAE is an animal model of multiple sclerosis.
Mice in both groups were immunized with an encephalitogenic PLP peptide in complete Freund's adjuvant subcutaneously, followed by Petrussis Toxin (IV). Petrussis toxin was repeated on day 3 post immunization.

A short description of data set [2]: C7 inactivation in H2O2, HPLC. The following applies: 100 μM C7, 1 mM H2O2, with 1 mM ABTS. It is filed as physicochemical. The protocol: Where indicated, 1 mM ABTS was also present. Components were mixed and, after various incubations times, a 30 μl aliquot was injected onto the HPLC. The mixtures were chromatographed on an octadecyl-silica column using a mobile phase consisting of 60% methanol:40% 0.1 M Nacl and a flow rate of 1 ml/min. […] A third component, with a retention time of 4.8 min, was detectable under some conditions; its appearance and disappearance was monitored but it was not further analyzed. In this system, ABTS and its oxidized product had retention times of 3.4 and 3.1-min, respectively, well resolved from the peaks of interest. Absorbance spectra collected during each run allowed the identity of C7 and salicylaldehyde to be verified. All peaks were integrated based upon their absorbance at 240 nm. The results are expressed as the percentage of maximum peak area. […] For the two putative breakdown products, this is equivalent to the largest peak observed during the course of the ˜2000 sec incubation period.

Data set [3] in a line: SOD activity, xanthine/xanthine oxidase with NBT as acceptor (Example 2). It is filed as biochemical. The protocol:
Superoxide dismutase (SOD) activity was assayed by following the inhibition of the reduction of an electron acceptor molecule in the presence of the free-radical generating system xanthine/xanthine oxidase (McCord et al. (1973) Superoxide and Superoxide Dismutase in “Oxidases and Related Redox Systems, vol. I, King et al. eds., University Park press, Baltimore, pp. 51-76). The assay mixture consisted of 50 mM sodium phosphate, pH 7.8, 120 μM xanthine, 0.2 units/ml xanthine oxidase, with acceptor molecule and salen manganese compound, as indicated. Assays were conducted at 27±0.2° C. using a water-jacketed cell holder in a Beckman DU7400 spectrophotometer. In most cases, oxidized cytochrome c, at 0.13 mg/ml, was employed as acceptor and its reduction was monitored spectrophotometrically at 550 nm. In some experiments, nitroblue tetrazolium (NBT), at 80 μM, was substituted for cytochrome c as the acceptor. NBT reduction was also monitored at 550 nm. An estimated extinction coefficient for NBT reduction, 20,800 M^−1cm^−1, determined empirically by exhaustive reduction of NBT in the reaction mixture described above, was employed where indicated. This value agreed well with reported extinction coefficients for reduced tetrazolium dyes. […] Conversion of xanthine to urate was calculated using ε290's of […] for urate and 4050 M^−1cm^−1 for xanthine. […]

The test system of data set [4] is Hippocampal slices. Kind of data set: Lactic acid-induced lipid peroxidation in hippocampal slices. It is filed as cell-based, rat. The following applies: C7 50 μM, 30 mM lactate pH 5.0, 100 minutes. The protocol:
Hippocampal slices (400 μm thick) were obtained from Sprague-Dawley rats (150-200 g) and collected in preoxygenated (95% O2/5% CO2) Krebs-Ringer phosphate medium (pH 7.4) containing NaCl 120 mM, KCl 5 mM, CaCl2 1.3 mM, MgCl2 1.2 mM, NaPhosphate 16 mM (pH 7.4) and glucose 10 mM. After 15 minutes preincubation in a water bath at 35° C. under agitation, the buffer was replaced with the same buffer (control) or a modified buffer (lactate buffer) containing NaCl 90 mM, KCl 5 mM, CaCl2 1.3 mM, MgCl2 1.2 mM, NaPhosphate 16 mM and lactic acid 30 mM (pH 5.0). […] After 100 minutes, slices were collected and homogenized in 0.9 ml of TCA 5%, whereas 0.35 ml of TCA 5% was added to 0.5 ml of the incubation medium. Lipid peroxidation was measured by adding 0.25 ml of a thiobarbituric acid reagent (TBAR) to 0.85 ml of the TCA extracts and incubating the mixture for 60 minutes at 85-93° C. Lipids were then extracted with 2×0.5 ml 1-butanol by vortexing for 10 seconds, then centrifuging at 2,000 rpm for 10 minutes. The absorbance of peroxidized lipids in the alcohol phase was measured in a spectrophotometer at 532 nm. Data were expressed as nmoles of malondialdehyde (MDA) using authentic MDA to establish a standard curve. Proteins were measured from an aliquot of the TCA extracts using the method of Bradford and the final results were calculated as nmoles MDA formed/mg protein.

The subject of data set [5] is Rats. Kind of data set: Ischemia-reperfusion induced kidney damage in the rat. It is filed as in vivo. The settings on record: 0.2 mg/kg single intravenous bolus at beginning of reperfusion. The protocol: Rats (“Untreated” and “C40” groups) were unilaterally nephrectomized. The remaining renal artery was clamped for 75 min then reperfused. Kidney function was assessed by determining creatinine levels in the blood. Where indicated, rats received C40 as a single intravenous bolus injection (0.2 mg/kg) at the beginning of the reperfusion period. Bilaterally nephrectomized rats, showing maximal creatinine levels in the absence of kidney function, died on day 2.

In data set [6] the test system is Rats. The data set is described as follows: Rat model for stroke, Middle Cerebral Artery occlusion. It is filed as in vivo. The settings on record: single intravenous injection 3 hr after MCA occlusion. The protocol:
(§1) Rats were subjected to a Middle Cerebral Artery (MCA) Occlusion model involving permanent occlusion of the parietal branch of the left middle cerebral artery and temporary (60 min) occlusion of the common carotid arteries. As indicated, rats received a single intravenous injection of vehicle (Control), or C40 at 3 hr after the MCA was occluded. Twenty-one hr after MCA occlusion, brains were removed, sectioned, and stained with the viability dye TTC (2,3,5-triphenyltetrazolium chloride). The stained sections were photographed and the volumes of infarcted (unstained) and viable (red stained) brain tissue quantitated by image analysis.
as §1, with “occlusion” for “Occlusion”

Data set [7] has as its system mice. The data set is described as follows: Mouse skin transplantation model. It is filed as in vivo. The following applies: 50 mg/kg single intraperitoneal injection at grafting. The protocol:
In this model, donor and recipient mice were immunologically mismatched (ClassI/Class II MHC mismatched). A piece of skin (˜1 cm^2) from the tail of a donor mouse was transplanted onto the back of a recipient mouse. The graft was bandaged and observed daily for rejection, as indicated by loss of vascularization and necrosis. Recipient mice received vehicle (Control) or 50 mg/kg C40 as a single intraperitoneal injection at the time of grafting.

“Also recorded” adds a separate entry of the source.

In the case of `[Cl][Mn]1[O]c2ccccc2C=NCCN=Cc2ccccc2[O]1` [Compound C7], in data set [1] (fifth week, three weeks after treatment with C7 was stopped), the “mice developing symptomatic EAE” value was “six”. For the same molecule, the “mice developing symptomatic EAE” value in data set [1] (third week following immunization, C7 1 mg/mouse IP daily, day -2 to 14) was “one of 10”. In data set [2], the “C7 peak disappeared rapidly” value is listed as “about 20%” and the “C7 persisting for the ~2000 sec incubation” value amounted to 80%. The NBT reduction result in data set [3] (0.1 to 6 μM C7) was “inhibited the rate of NBT reduction in a concentration-dependent manner; also recorded: inhibits NBT reduction”. Moreover, the “inhibition of NBT reduction” value in data set [3] (about 1.7 nmoles C7) is “about 59%”. Also, the “lactate-induced increase in lipid peroxidation” value in data set [4] is recorded as “totally abolished; also recorded: protects”.
In the case of `COc1cccc2c1[O][Mn]([Cl])[O]c1c(cccc1OC)C=NCCN=C2` [Compound C40], the “kidney damage, creatinine levels in the blood” value in data set [5] is on record as “protects against ischemia-reperfusion induced kidney damage”. In addition, the “protection, infarct volume” value in data set [6] is given as “protective”. Moreover, the graft rejection entry in data set [7] is “delays rejection”.
